Data as given in US20110268794A1, “METHODS AND MATERIALS FOR DELIVERING BILE ACIDS” (priority 2009, published 2011).

Columns and labels:
Format in all cases: in vivo, human
healthy volunteers [1] = assay: Scintigraphic gastrointestinal and colonic transit, healthy volunteers (Example 1); conditions: for AC t1/2 (ascending colon emptying) / CF 6 (colonic filling at 6 hours) / GC 4 (colonic geometric center at 4 h) / GC 6 (colonic geometric center at 6 h) / GC 8 (colonic geometric center at 8 h) / GC 48 (colonic geometric center at 48 h) / GC 24 (colonic geometric center at 24 h) / GE t1/2 (gastric emptying): N = 20, mean ± SEM; for GC 48 (colonic geometric center at 48 h): overall p < 0.0001; for GC 24 (colonic geometric center at 24 h): overall p = 0.01; for GE t1/2 (gastric emptying): methacrylate-coated capsule
Experimental: This was a double-blind, placebo-controlled, randomized study evaluating the effects of sodium chenodeoxycholate (CDC) or placebo orally administered once daily for four days in healthy volunteers.
Randomization was 1:1:1 for placebo, chenodeoxycholate 500 mg, and chenodeoxycholate 1000 mg. Sodium chenodeoxycholate was purchased from Calbiochem, EMD Chemicals Inc., and Mayo pharmacy prepared identical placebo and chenodeoxycholate capsules, all of which were coated with the pH sensitive polymer, methacrylate. The latter dissolves at the neutral pH found in the distal ileum and was used to ensure ileocolonic delivery of the chenodeoxycholate.
Three groups (n=20 each) were randomized to oral placebo, 500 mg or 1000 mg CDC daily (in pH-sensitive, methacrylate-coated capsules), each for a period of 4 days.
Gastrointestinal (GI) and colonic transit was conducted by a scintigraphic method (Burton et al., J. Nucl. Med., 38:1807-10 (1997); Cremonini et al., Aliment Pharmacol. Ther., 16:1781-90 (2002); and Camilleri and Zinsmeister, Gastroenterology, 103:36-42 (1992)) during the last 48 hours of drug ingestion (FIG. 1).
An adaptation of an established scintigraphic method was used to measure GI and colonic transit (Burton et al., J. Nucl. Med., 38:1807-10 (1997); Cremonini et al., Aliment Pharmacol. Ther., 16:1781-90 (2002); and Camilleri and Zinsmeister, Gastroenterology, 103:36-42 (1992)). ^111In was adsorbed on to activated charcoal particles and delivered to the colon by means of a methacrylate-coated, delayed-release oral capsule. The capsule was ingested following an overnight fast. After the capsule emptied from the stomach, a ^99mTc-sulfur colloid radiolabeled meal was ingested. It consisted of two scrambled eggs, one slice of whole wheat bread, and one glass of whole milk. This meal facilitates measurement of gastric and small bowel transit. Subjects ingested standardized meals for lunch and dinner at 4 and 8 hours after the radiolabeled meal, respectively. Abdominal scans were obtained every hour for the first 6 hours (the first 4 hours for the assessment of gastric emptying) and at 8, 24, and 48 hours after ingestion of the ^111In capsule. The performance characteristics of this test are summarized elsewhere (Cremonini et al., Aliment Pharmacol. Ther., 16:1781-90 (2002)).
The counts in the stomach and each of four colonic regions: ascending, transverse, descending, and combined sigmoid and rectum were quantitated with a variable region of interest program. Counts were corrected for isotope decay, tissue attenuation, and downscatter of ^111In counts in the ^99mTc window (Burton et al., J. Nucl. Med., 38:1807-10 (1997) and Cremonini et al., Aliment Pharmacol. Ther., 16:1781-90 (2002)).
Gastric emptying t1/2 is a measure of the time for 50% of the radiolabeled meal (identifiable by radiolabeled tracer) to empty from the stomach. Colonic filling at 6 hours, or the proportion of the radiolabeled meal to have reached the colon at 6 hours is an indirect measurement of small bowel transit time. Overall colonic transit was summarized as the colonic geometric center (GC) at specified times. The GC is the weighted average of counts in the different colonic regions [ascending (AC), transverse (TC), descending (DC), rectosigmoid (RS)] and stool, respectively 1 to 5. Thus, at any time, the proportion of counts in each colonic region is multiplied by its weighting factor as follows:
(% AC×1+% TC×2+% DC×3+% RS×4+% stool×5)/100=GC
Thus, a higher GC reflects a faster colonic transit. Ascending colon emptying was summarized by the t1/2 calculated by linear interpolation of values on the AC emptying curve.
The primary endpoints were the colonic GC at 24 hours (GC 24) and AC emptying t1/2.

healthy volunteers [2] = assay: Daily stool diaries (bowel function), healthy volunteers (Example 1); conditions: for Ease of passage (scale 1-7) / Stool frequency per day / Stool consistency by Bristol Stool Form Scale: N = 20, mean ± SEM; for Stool frequency per day: overall p < 0.001; for Stool consistency by Bristol Stool Form Scale: scale 1 hard lumps to 7 watery
Experimental: This was a double-blind, placebo-controlled, randomized study evaluating the effects of sodium chenodeoxycholate (CDC) or placebo orally administered once daily for four days in healthy volunteers. Three groups (n=20 each) were randomized to oral placebo, 500 mg or 1000 mg CDC daily (in pH-sensitive, methacrylate-coated capsules), each for a period of 4 days. During at least 3 days of the baseline period and the 4 days of treatment period, each patient noted each bowel movement with the exact time and with the description of stool consistency according to the BSFS (ranging from 1=“hard lumps” to 7=“watery”), and the ease of passage (ranging from 1=“manual disimpaction” to 7=“incontinence”), and answered whether or not they felt they had completely emptied their bowels (1=“yes” and 0=“no”) (Bouras et al., Gastroenterology, 120:354-60 (2001)). The diaries contained values for stool consistency, stool frequency, ease of passage and sense of completely emptying their bowels.

healthy volunteers [3] = assay: Adverse events, healthy volunteers (Example 1); conditions: for Percent of participants dizzy, light-headed / Percent of participants with URI / Percent of participants with diarrhea / Percent of participants with gas / Percent of participants with headache / Percent of participants with loose stools / Percent of participants with lower abdo bloating / Percent of participants with lower abdo pain/cramps / Percent of participants with muscle aches / Percent of participants with nausea / Percent of participants with sensation of warmth / Percent of participants with sweating: n=20
Experimental: This was a double-blind, placebo-controlled, randomized study evaluating the effects of sodium chenodeoxycholate (CDC) or placebo orally administered once daily for four days in healthy volunteers. An independent statistician generated the randomization code. Clinical and laboratory study personnel were blinded throughout the study until data were locked and analyzed. Safety monitoring was conducted throughout the study. Three groups (n=20 each) were randomized to oral placebo, 500 mg or 1000 mg CDC daily (in pH-sensitive, methacrylate-coated capsules), each for a period of 4 days.

female IBS-C patients [4] = assay: Scintigraphic gastrointestinal and colonic transit, female IBS-C patients (Example 2)
Experimental: (§1) The following study was performed to evaluate the effects of ileocolonic delivery of sodium chenodeoxycholate (CDC) on gastrointestinal (GI) and colonic transit and bowel function in constipation-predominant irritable bowel syndrome (IBS-C). A double-blind, placebo-controlled study evaluated effects of once-daily CDC for 4 days in 36 female IBS-C patients (mean age 41.80±1.62 y). Patients were randomized to oral placebo, 500 mg or 1000 mg CDC delivered to the ileocolonic region in pH-sensitive, methacrylate-coated capsules. Fasting serum 7α-hydroxy-4-cholesten-3-one (7αC4) was measured to assess for baseline abnormalities in bile acid synthesis. […] Treatment effects were compared by ANCOVA with BMI as a covariate, and each CDC dose against placebo by Dunnett's test.

female IBS-C patients [5] = assay: Bowel function by daily questionnaires, female IBS-C patients (Example 2)
Experimental: as §1

female IBS-C patients [6] = assay: Side effects, female IBS-C patients (Example 2)
Experimental: as §1

[7] = 500 mg or 1000 mg once daily 4 days vs placebo, healthy volunteers
[8] = 500 mg or 1000 mg once daily 4 days vs placebo
[9] = CDC 500 mg once daily 4 days, N = 11, mean ± SEM
[10] = CDC 1000 mg once daily 4 days, N = 12, mean ± SEM

## C[C@H](CCC(=O)O)[C@H]1CC[C@H]2[C@@H]3[C@H](O)C[C@@H]4C[C@H](O)CC[C@]4(C)[C@H]3CC[C@]12C [CDC, sodium chenodeoxycholate]
Healthy volunteers [1]; [7]
  Treatment effect on colonic filling: not detected
  Treatment effect on gastric emptying: not detected
Healthy volunteers [1]; CDC 500 mg once daily 4 days
  AC t1/2 (ascending colon emptying): 12.1 ± 2.1 h
  CF 6 (colonic filling at 6 hours): 49.6 ± 7.0%
  GC 4 (colonic geometric center at 4 h): 0.87 ± 0.18
  GC 6 (colonic geometric center at 6 h): 1.53 ± 0.28
  GC 8 (colonic geometric center at 8 h): 1.83 ± 0.27
  GC 48 (colonic geometric center at 48 h): 4.10 ± 0.21
  GC 24 (colonic geometric center at 24 h): 2.80 ± 0.27
Healthy volunteers [1]; CDC 500 mg oral once daily 4 days
  GE t1/2 (gastric emptying): 2.115 ± 0.0883 h
Healthy volunteers [1]; CDC 1000 mg once daily 4 days
  AC t1/2 (ascending colon emptying): 10.7 ± 1.9 h
  CF 6 (colonic filling at 6 hours): 46.0 ± 7.1%
  GC 4 (colonic geometric center at 4 h): 1.27 ± 0.33
  GC 6 (colonic geometric center at 6 h): 2.20 ± 0.43
  GC 8 (colonic geometric center at 8 h): 2.52 ± 0.39
  GC 48 (colonic geometric center at 48 h): 4.92 ± 0.05
  GC 24 (colonic geometric center at 24 h): 3.76 ± 0.30
Healthy volunteers [1]; CDC 1000 mg oral once daily 4 days
  GE t1/2 (gastric emptying): 2.383 ± 0.235 h
Healthy volunteers [2]; 500 mg or 1000 mg once daily 4 days vs placebo, healthy volunteers, p=0.02
  Overall treatment effect on sense of incomplete evacuation: significant overall treatment effects
Healthy volunteers [2]; CDC 500 mg once daily 4 days
  Ease of passage (scale 1-7): 4.1 ± 0.06
  Stool frequency per day: 1.50 ± 0.18 per day
  Stool consistency by Bristol Stool Form Scale: 4.29 ± 0.19
Healthy volunteers [2]; CDC 1000 mg once daily 4 days
  Ease of passage (scale 1-7): 4.3 ± 0.06
  Stool frequency per day: 2.01 ± 0.15 per day
  Stool consistency by Bristol Stool Form Scale: 4.80 ± 0.15
Healthy volunteers [3]; 500 mg or 1000 mg once daily 4 days, healthy volunteers
  Serious adverse events: no serious adverse events
Healthy volunteers [3]; CDC 500 mg once daily 4 days
  Percent of participants dizzy, light-headed: 10%
  Percent of participants with URI: 0%
  Percent of participants with diarrhea: 40%
  Percent of participants with gas: 5%
  Percent of participants with headache: 25%
  Percent of participants with loose stools: 15%
  Percent of participants with lower abdo bloating: 5%
  Percent of participants with lower abdo pain/cramps: 15%
  Percent of participants with muscle aches: 5%
  Percent of participants with nausea: 5%
  Percent of participants with sensation of warmth: 5%
  Percent of participants with sweating: 5%
Healthy volunteers [3]; CDC 1000 mg once daily 4 days
  Percent of participants dizzy, light-headed: 5%
  Percent of participants with URI: 10%
  Percent of participants with diarrhea: 75%
  Percent of participants with gas: 5%
  Percent of participants with headache: 25%
  Percent of participants with loose stools: 20%
  Percent of participants with lower abdo bloating: 0%
  Percent of participants with lower abdo pain/cramps: 75%
  Percent of participants with muscle aches: 0%
  Percent of participants with nausea: 20%
  Percent of participants with sensation of warmth: 5%
  Percent of participants with sweating: 5%
Female IBS-C patients [4]; [8]
  Effect on colonic filling at 6 hours: not affected
  Effect on gastric emptying t1/2: not affected
Female IBS-C patients [4]; [9]
  AC t1/2 (ascending colon emptying): 9.55 ± 2.90 h
  CF 6 (colonic filling at 6 hours): 52.64 ± 6.67%
  GC 24 (colonic geometric center at 24 hours): 3.12 ± 0.43
Female IBS-C patients [4]; [10]
  AC t1/2 (ascending colon emptying): 8.19 ± 1.78 h
  CF 6 (colonic filling at 6 hours): 54.75 ± 7.05%
  GC 24 (colonic geometric center at 24 hours): 3.49 ± 0.36
Female IBS-C patients [5]; [9]
  Stool consistency (Bristol Scale): 3.58 ± 0.33
  Stool frequency per day: 1.22 ± 0.19 per day
Female IBS-C patients [5]; [10]
  Stool consistency (Bristol Scale): 3.47 ± 0.23
  Stool frequency per day: 1.27 ± 0.13 per day
Female IBS-C patients [6]; 500 mg or 1000 mg once daily 4 days
  Safety issues: No safety issues were identified
Female IBS-C patients [6]; CDC 500 mg once daily 4 days
  Patients with diarrhea: 18%
  Patients with lower abdominal cramps/pain: 45%
Female IBS-C patients [6]; CDC 1000 mg once daily 4 days
  Patients with diarrhea: 17%
  Patients with lower abdominal cramps/pain: 42%
